Measured values taken from US6930110B2, “Substituted alkylaminopyridazinone derivatives, process for the preparation thereof and pharmaceutical composition containing the same” (Egis Gyogyszergyar Rt., priority 2001, dated 2005).
Where a name gives a salt, the structure may show the parent alone. Read-outs that look alike come from different tables or passages of the source.

Legend:
Male Sprague-Dawley rats = assay: Elevated plus-maze test in rats; assay type: in vivo, rat; conditions: 60 min after treatment, minimal effective dose regarding the time spent in the open arms
From the text: Tests have been performed as described by Pellow and co-workers [J. Neurosci. Methods, 14, 149 (1985)]. A wooden cross, 15 cm wide with 100 cm long arms was used for the experiments. The sides and ends of two opposite arms of the cross were equipped with 40 cm high walls, however, the arms were open to the 15×15 cm central area (closed arms). The two other opposite arms were not encircled by walls (open arms).
Male Sprague-Dawley rats weighing 200-220 g were used for the experiments. The animals were placed in the central area of the equipment 60 min after treatment and the following four parameters have been observed for the 5 min test time: • time spent in the open arms, • time spent in the closed arms, • number of entries into the open arms, • number of entries into the closed arms.
The effect was expressed as percent increase in either the time (measured in sec) spent in the open arms or number of entries into the open arms. MEDs (minimal effective dose) were determined for each compound regarding the time spent in the open arms. Buspirone [8-{4-[4-(2-pyrimidinyl)-1-piperazinyl]butyl}-8-azaspiro[4,5]decane-7,9-dione] was used as the reference substance.

mouse = assay: Inhibition of spontaneous motor activity (sedative effect); assay type: in vivo
Experimental: The effect on spontaneous motor activity was investigated according to Borsy and co-workers [Borsy, J. et al, Arch. Int. Pharmacodyn., 124, 180-190 (1960)] in a ten channel Dews instrument, with 1-1 animal in each channel. Animals were placed into the instrument 60 min after per os treatment with either vehicle or test compound, and interruptions of infrared beams were recorded for 30 min. […] Inhibitory doses (ID50)have been determined by regression analysis. Diazepam was used as the reference substance.

male Wistar rats [1] = assay: Vogel lick-conflict (drinking conflict) test; assay type: in vivo, rat; conditions: intraperitoneally, 30 min prior to test, number of tolerated shocks
Experimental: Experiments were performed in a PC operated system (LIIKOSYS, Experimentria, Hungary) consisted of 8 test chambers (20 cm×20 cm×20 cm Plexiglas boxes) each of which was equipped with a water fountain system mounted at appropriate height on the wall of the chamber and metal grid floor for delivering electric shocks. 160-180 g male Wistar rats N=8) were deprived of drinking water 48 h and fasted for 24 h prior to test. Test and reference compounds or vehicle were administered intraperitoneally, 30 min prior to test. All procedures were carried out in a quiet, air-conditioned room between 07:30 and 13:00 h at an ambient temperature of 23±2° C. At the beginning of the test the animals were placed in the test chamber where they had free access to drinking water for a 30 s grace period. After that, electric shocks (600 μA, 0.6 s) were applied through the drinking spout following every 20 licks during the 5 min test period (Vogel et al, 1971). Number of punished licks were recorded and stored by an IBM compatible computer. Means±SEM of numbers of tolerated shocks were calculated in each group, statistical analysis of data was performed by one way ANOVA followed by Duncan's test ([…]). Diazepam [7-chloro-1,3-dihydro-1-methyl-5-phenyl-2H-1,4-benzodiazepine-2-one] was used as the reference substance.

male Wistar rats [2] = assay: Effects on blood pressure, radiotelemetry in conscious rats; conditions: for Mean blood pressure after treatment with test compound (mmHg), Mean: mean arterial blood pressure for 6 hours after oral treatment; for Results of statistical evaluation: test compound compared to placebo, mean arterial blood pressure for 6 hours after treatment
Experimental: (§1) The experiments were performed in conscious, freely moving, male Wistar rats using a radiotelemetry system (Data Sciences International, St. Paul, Minn., USA). Prior to treatments rats were implanted with transmitters (type: TL11M2-C50-PXT) that permitted continues monitoring of arterial blood pressure. Under sterile surgical conditions, catheter of the transmitter was introduced into the abdominal aorta for measurement of arterial blood pressure and the transmitter was sutured to the abdominal wall of animals anaesthetised with pentobarbital-Na (60 mg/kg, i.p.; Nembutal inj. Phylaxia-Sanofi, Budapest). After surgery the animals were treated with an antibiotic (1 ml/kg i.m. Tardomyocel comp. inj. ad us. vet., Bayer A G, Leverkusen, Germany). A 7 day postoperative recovery period was allowed. Radio signals emitted by the transmitters were detected by RLA1000 type receivers placed under each animal's cage. The data were collected, saved and evaluated using the Dataquest IV. software from Data Sciences. The computer was set to sample the parameters for 10 seconds in every second minute.
(§2) The test substances or vehicle (methyl cellulose 0.4% w/v) were administered orally by gavage in a volume of 1 ml/kg at about 10 a.m. The effects of test items were measured for 6 hours. The effect of each compound was compared with that caused by vehicle treatment using two-way analysis of variance for repeated measures with Scheffe's post hoc test.

male Wistar rats [3] = conditions: rat, in vivo
Experimental: as §1, §2

[4] = per os, 60 min before test, interruptions of infrared beams recorded for 30 min

Row | Structure (SMILES) | melting point [°C] | MED in mg/kg po. (Male Sprague-Dawley rats) [mg/kg] | MED in mg/kg ip. (male Wistar rats [1]) [mg/kg] | other results
1 | O=c1[nH]ncc(Cl)c1NCCCN(CCOc1cccc2c1OCCO2)Cc1ccccc1 (as salt: hydrochloride) [Example 3, 4-{3-[benzyl-[2-(2,3-dihydrobenzo[1,4]dioxine-5-yloxy)ethyl]-amino]propylamino}-5-chloro-2H-pyridazine-3-one hydrochloride] | 207 to 209 | – | – | –
2 | O=c1[nH]nccc1NCCCNCCOc1cccc2c1OCCO2 (as salt: hydrochloride) [Example 9, 4-{3-[2-(2,3-dihydrobenzo[1,4]dioxine-5-yloxy)ethylamino]-propylamino}-2H-pyridazine-3-one] | 203 to 204 | – | – | –
3 | CN(CCN1CCN(c2cccc3c2OCCO3)CC1)c1cnn(C)c(=O)c1 (as salt: hydrochloride) [Example 16, 5-(2-(4-(2,3-dihydro-benzo[1,4]dioxine-5-yl)-piperazine-1-yl)-ethyl-methyl-amino)-2-methyl-2H-pyridazine-3-one-hydrochloride] | 249 to 251 | – | – | –
4 | O=C1CC2(CCCC2)CC(=O)N1CCCCN1CCN(c2ncccn2)CC1 [Buspirone, 8-{4-[4-(2-pyrimidinyl)-1-piperazinyl]butyl}-8-azaspiro[4,5]decane-7,9-dione, reference compound] | – | 3.0 | – | –
5 | CN1C(=O)CN=C(c2ccccc2)c2cc(Cl)ccc21 [Diazepam, 7-chloro-1,3-dihydro-1-methyl-5-phenyl-2H-1,4-benzodiazepine-2-one, reference compound] | – | – | 5.0 | ID50 in mg/kg po. (mouse; [4]): 7.0 mg/kg
6 | CCCN(CCCNc1c(Cl)cn[nH]c1=O)CCOc1cccc2c1OCCO2 [Example 2, 5-chloro-4-(3-{[2-(2,3-dihydrobenzo[1,4]dioxine-5-yloxy)-ethyl]propyl-amino}propylamino)-2H-pyridazine-3-one] | 87 to 89 | 10.0 | 20.0 | –
7 | O=c1[nH]ncc(Cl)c1NCCCN(CCOc1cccc2c1OCCO2)Cc1ccccc1 [Example 3, 4-{3-[benzyl-[2-(2,3-dihydrobenzo[1,4]dioxine-5-yloxy)ethyl]-amino]propylamino}-5-chloro-2H-pyridazine-3-one hydrochloride] | – | 10.0 | – | –
8 | O=c1[nH]ncc(Cl)c1NCCCCN1CCN(c2cccc3c2OCCO3)CC1 [Example 4, 5-chloro-4-{4-[4-(2,3-dihydrobenzo[1,4]dioxine-5-yl)-piperazine-1-yl]-butylamino}-2H-piridazine-3-one] | – | 1.0 | 20.0 | ID50 in mg/kg po. (mouse; in vivo, po): 30.0 mg/kg
9 | O=c1[nH]ncc(NCCN2CCN(c3cccc4c3OCCO4)CC2)c1Cl [Example 5, 4-chloro-5-{2-[4-(2,3-dihydrobenzo[1,4]dioxine-5-yl)-piperazin-1-yl]-ethylamino}-2H-pyridazine-3-one] | 217 to 219 | 0.003 | – | ID50 in mg/kg po. (mouse; [4]): 11.0 mg/kg
10 | Cn1ncc(NCCN2CCN(c3cccc4c3OCCO4)CC2)c(Cl)c1=O.O [Example 6, 4-chloro-5-{2-[4-(2,3-dihydro-1,4-benzodioxine-5-yl)-piperazine-1-yl]-ethylamino}-2-methyl-2H-piridazine-3-one monohydrate] | – | – | <5.0 | Mean blood pressure after treatment with test compound (mmHg), Mean (male Wistar rats [2]): 106.3 mmHg; Results of statistical evaluation (male Wistar rats [2]): N.S.
11 | CN(CCN1CCN(c2cccc3c2OCCO3)CC1)c1cn[nH]c(=O)c1Cl [Example 7, 4-chloro-5-{2-[4-(2,3-dihydrobenzo[1,4]dioxine-5-yl)-piperazine-1-yl]ethyl}methylamino-2H-pyridazine-3-one] | – | – | <10.0 | Results of statistical evaluation (male Wistar rats [3]): N.S.; Mean blood pressure after treatment with test compound (mmHg), Mean (male Wistar rats [3]; po): 97.0 mmHg
12 | CC(C)(C)n1ncc(Cl)c(NCCN2CCN(c3cccc4c3OCCO4)CC2)c1=O [Example 8, 2-tert.-butyl-5-chloro-4-{2-[4-(2,3-dihydrobenzo-[1,4]dioxine-5-yl)piperazine-1-yl]ethylamino}-2H-pyridazine-3-one] | 177 to 178 | – | – | Mean blood pressure after treatment with test compound (mmHg), Mean (male Wistar rats [2]): 95.4 mmHg; Results of statistical evaluation (male Wistar rats [2]): N.S.
13 | O=c1[nH]nccc1NCCCNCCOc1cccc2c1OCCO2 [Example 9, 4-{3-[2-(2,3-dihydrobenzo[1,4]dioxine-5-yloxy)ethylamino]-propylamino}-2H-pyridazine-3-one] | – | 0.3 | – | ID50 in mg/kg po. (mouse; [4]): >30.0 mg/kg
14 | O=c1cc(NCCN2CCN(c3cccc4c3OCCO4)CC2)cn[nH]1 [Example 10, 5-{2-[4-(2,3-dihydro-1,4-benzodioxine-5-yl)-piperazine-1-yl]-ethylamino}-2H-pyridazine-3-one] | 244 to 246 | 0.01 | 5.0 | ID50 in mg/kg po. (mouse; [4]): 53.3 mg/kg
15 | O=c1cc(NCCN2CCN(c3cc(Cl)cc4c3OCCO4)CC2)cn[nH]1 [Example 11, 5-{2-[4-(7-chloro-2,3-dihydrobenzo[1,4]dioxine-5-yl)-piperazine-1-yl]ethylamino}-2H-pyridazine-3-one] | 115 to 117 | – | 20.0 | Mean blood pressure after treatment with test compound (mmHg), Mean (male Wistar rats [2]): 101.5 mmHg; Results of statistical evaluation (male Wistar rats [2]): N.S.
16 | O=c1cc(NCCCN2CCN(c3cccc4c3OCCO4)CC2)cn[nH]1 [Example 12, 5-{3-[4-(2,3-dihydro-1,4-benzodioxine-5-yl)piperazine-1-yl]-propylamino}-2H-pyridazine-3-one] | 158 to 160 | – | – | Mean blood pressure after treatment with test compound (mmHg), Mean (male Wistar rats [2]): 89.9 mmHg; Results of statistical evaluation (male Wistar rats [2]): N.S.
17 | O=c1cc(NCCNCCOc2cccc3c2OCCO3)cn[nH]1 [Example 13, 5-{2-[2-(2,3-dihydrobenzo[1,4]dioxine-5-yloxy)ethylamino)-ethylamino)-2H-pyridazine-3-one] | 81 to 83 | – | – | –
18 | Cn1ncc(NCCN2CCN(c3cccc4c3OCCO4)CC2)cc1=O [Example 14, 5-{2-[4-(2,3-dihydro1,4-benzodioxine-5-yl)-piperazine-1-yl]-ethylamino}-2-methyl-2H-pyridazine-3-one] | 188 to 190 | – | – | –
19 | CN(CCN1CCN(c2cccc3c2OCCO3)CC1)c1cnn(C)c(=O)c1 [Example 16, 5-(2-(4-(2,3-dihydro-benzo[1,4]dioxine-5-yl)-piperazine-1-yl)-ethyl-methyl-amino)-2-methyl-2H-pyridazine-3-one-hydrochloride] | – | – | – | Mean blood pressure after treatment with test compound (mmHg), Mean (male Wistar rats [2]): 105.2 mmHg; Results of statistical evaluation (male Wistar rats [2]): N.S.
20 | CN(CCN1CCN(c2cccc3c2OCCO3)CC1)c1cnn(C)c(=O)c1Cl [Example 17, 4-chloro-5-({2-[4-(2,3-dihydro-benzo[1,4]dioxine-5-yl)-piperazine-1-yl]-ethyl}-methyl-amino)-2-methyl-2H-pyridazine-3-one] | 114 to 116 | – | – | –
